Assay results published in PMC4076210, “Discovery of Novel AKT Inhibitors with Enhanced Anti-Tumor Effects in Combination with the MEK Inhibitor” (PLoS ONE, 2014).
Read-outs that look alike come from different tables or passages of the source.

What was measured:
Assay in all cases: Kinase panel
VRK2(h) = molecular target: T1, VRK2(h) (Homo sapiens, UniProt Q86Y07); assay type: biochemical
T1 construct: purchased Millipore KinaseProfiler

LKB1(h) = molecular target: T2, LKB1(h) (Homo sapiens, UniProt Q15831); assay type: biochemical
T2 construct: purchased Millipore KinaseProfiler
T2 sequence (Q15831 1-433): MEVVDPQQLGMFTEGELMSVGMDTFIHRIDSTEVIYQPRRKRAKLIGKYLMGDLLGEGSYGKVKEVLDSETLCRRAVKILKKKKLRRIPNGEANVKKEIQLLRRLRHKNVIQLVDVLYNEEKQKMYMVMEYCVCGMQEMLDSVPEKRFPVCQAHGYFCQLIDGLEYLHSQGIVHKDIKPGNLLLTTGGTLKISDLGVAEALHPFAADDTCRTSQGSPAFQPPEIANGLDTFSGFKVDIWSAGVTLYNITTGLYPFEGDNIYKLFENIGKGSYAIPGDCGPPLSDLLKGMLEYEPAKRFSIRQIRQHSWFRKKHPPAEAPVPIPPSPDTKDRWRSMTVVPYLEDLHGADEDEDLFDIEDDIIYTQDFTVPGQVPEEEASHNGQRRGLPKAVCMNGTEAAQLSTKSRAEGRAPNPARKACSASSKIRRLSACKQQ
T2 sequence (Q7RTN6 1-431 partner): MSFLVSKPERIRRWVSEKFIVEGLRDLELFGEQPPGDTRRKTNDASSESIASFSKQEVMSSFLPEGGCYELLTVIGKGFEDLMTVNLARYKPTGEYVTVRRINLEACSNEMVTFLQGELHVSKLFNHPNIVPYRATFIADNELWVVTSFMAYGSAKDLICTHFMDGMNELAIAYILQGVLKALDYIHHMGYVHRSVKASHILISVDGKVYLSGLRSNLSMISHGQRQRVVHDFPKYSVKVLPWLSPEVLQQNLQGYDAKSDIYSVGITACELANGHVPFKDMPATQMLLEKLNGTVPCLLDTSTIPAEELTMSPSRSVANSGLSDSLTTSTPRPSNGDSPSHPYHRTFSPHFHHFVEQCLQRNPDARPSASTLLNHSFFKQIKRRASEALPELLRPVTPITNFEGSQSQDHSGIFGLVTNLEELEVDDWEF
T2 sequence (Q9Y376 1-341 partner): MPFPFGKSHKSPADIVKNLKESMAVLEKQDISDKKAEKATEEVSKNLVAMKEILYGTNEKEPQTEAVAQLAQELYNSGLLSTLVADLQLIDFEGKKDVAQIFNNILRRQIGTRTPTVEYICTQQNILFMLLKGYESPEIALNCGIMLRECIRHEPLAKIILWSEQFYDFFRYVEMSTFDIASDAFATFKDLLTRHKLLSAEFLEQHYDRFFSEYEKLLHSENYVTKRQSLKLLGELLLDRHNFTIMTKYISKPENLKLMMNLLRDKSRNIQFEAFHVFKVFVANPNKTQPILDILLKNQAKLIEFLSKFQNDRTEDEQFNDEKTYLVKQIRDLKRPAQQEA

IKKα(h) = molecular target: T3, IKKα(h) (Homo sapiens, UniProt O15111); assay type: biochemical
T3 construct: purchased Millipore KinaseProfiler
T3 sequence (O15111 1-745): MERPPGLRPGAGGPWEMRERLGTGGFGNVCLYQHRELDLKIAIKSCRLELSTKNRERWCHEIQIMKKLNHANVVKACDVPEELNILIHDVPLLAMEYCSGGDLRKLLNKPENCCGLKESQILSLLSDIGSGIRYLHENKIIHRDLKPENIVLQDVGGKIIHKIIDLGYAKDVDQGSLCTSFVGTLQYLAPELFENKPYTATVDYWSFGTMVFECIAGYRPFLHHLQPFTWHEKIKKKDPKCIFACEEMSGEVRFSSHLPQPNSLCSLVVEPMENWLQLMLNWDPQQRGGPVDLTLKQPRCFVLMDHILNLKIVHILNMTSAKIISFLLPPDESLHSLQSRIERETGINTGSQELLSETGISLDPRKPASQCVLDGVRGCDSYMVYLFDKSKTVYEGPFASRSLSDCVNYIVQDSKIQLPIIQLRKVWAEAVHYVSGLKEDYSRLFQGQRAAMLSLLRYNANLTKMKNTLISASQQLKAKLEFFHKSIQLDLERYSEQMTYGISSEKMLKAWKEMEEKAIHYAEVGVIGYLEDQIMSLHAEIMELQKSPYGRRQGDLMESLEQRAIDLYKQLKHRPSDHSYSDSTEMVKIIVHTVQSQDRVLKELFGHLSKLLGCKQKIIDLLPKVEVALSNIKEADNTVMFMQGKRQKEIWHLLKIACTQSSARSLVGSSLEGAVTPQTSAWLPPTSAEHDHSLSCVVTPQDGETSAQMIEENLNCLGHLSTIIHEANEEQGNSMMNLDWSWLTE

DYRK2(h) = molecular target: T4, DYRK2(h) (Homo sapiens, UniProt Q92630); assay type: biochemical
T4 construct: purchased Millipore KinaseProfiler
T4 sequence (Q92630 1-601): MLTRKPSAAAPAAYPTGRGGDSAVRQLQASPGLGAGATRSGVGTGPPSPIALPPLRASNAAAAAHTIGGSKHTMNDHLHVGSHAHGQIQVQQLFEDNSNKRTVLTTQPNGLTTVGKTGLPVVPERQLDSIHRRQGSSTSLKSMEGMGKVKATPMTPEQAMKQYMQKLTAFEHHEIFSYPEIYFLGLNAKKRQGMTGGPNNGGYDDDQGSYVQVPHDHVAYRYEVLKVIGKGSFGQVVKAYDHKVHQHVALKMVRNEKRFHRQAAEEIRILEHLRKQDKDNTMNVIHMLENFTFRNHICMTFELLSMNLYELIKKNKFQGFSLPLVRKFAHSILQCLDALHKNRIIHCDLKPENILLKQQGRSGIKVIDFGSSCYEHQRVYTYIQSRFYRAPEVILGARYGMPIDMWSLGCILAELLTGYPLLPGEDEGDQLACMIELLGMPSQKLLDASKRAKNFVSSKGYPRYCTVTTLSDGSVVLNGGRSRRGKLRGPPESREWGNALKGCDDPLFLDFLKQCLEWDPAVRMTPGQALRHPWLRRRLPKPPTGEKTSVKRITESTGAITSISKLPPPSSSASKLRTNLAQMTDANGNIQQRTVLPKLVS

Rsk1(h) = molecular target: T5, Rsk1(h) (Homo sapiens, UniProt Q15418); assay type: biochemical
T5 construct: purchased Millipore KinaseProfiler

CaMKIIδ(h) = molecular target: T6, CaMKIIδ(h) (Homo sapiens, UniProt Q13557); assay type: biochemical
T6 construct: purchased Millipore KinaseProfiler

MLCK(h) = assay type: biochemical, human

T1 sequence (Q86Y07 whole entry): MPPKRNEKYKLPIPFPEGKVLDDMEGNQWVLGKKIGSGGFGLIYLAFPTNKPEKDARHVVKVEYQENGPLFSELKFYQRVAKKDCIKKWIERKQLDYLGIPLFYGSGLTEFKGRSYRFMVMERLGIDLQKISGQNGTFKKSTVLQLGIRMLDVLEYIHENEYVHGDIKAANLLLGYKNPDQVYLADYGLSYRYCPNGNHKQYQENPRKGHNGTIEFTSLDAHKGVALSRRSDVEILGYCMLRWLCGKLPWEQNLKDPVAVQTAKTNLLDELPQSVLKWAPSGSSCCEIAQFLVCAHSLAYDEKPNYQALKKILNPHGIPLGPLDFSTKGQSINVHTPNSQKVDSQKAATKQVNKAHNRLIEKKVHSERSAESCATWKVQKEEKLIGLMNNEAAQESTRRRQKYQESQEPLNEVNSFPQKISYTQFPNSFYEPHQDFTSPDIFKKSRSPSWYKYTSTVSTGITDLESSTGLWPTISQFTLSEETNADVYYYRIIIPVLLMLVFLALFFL
T5 sequence (Q15418 whole entry): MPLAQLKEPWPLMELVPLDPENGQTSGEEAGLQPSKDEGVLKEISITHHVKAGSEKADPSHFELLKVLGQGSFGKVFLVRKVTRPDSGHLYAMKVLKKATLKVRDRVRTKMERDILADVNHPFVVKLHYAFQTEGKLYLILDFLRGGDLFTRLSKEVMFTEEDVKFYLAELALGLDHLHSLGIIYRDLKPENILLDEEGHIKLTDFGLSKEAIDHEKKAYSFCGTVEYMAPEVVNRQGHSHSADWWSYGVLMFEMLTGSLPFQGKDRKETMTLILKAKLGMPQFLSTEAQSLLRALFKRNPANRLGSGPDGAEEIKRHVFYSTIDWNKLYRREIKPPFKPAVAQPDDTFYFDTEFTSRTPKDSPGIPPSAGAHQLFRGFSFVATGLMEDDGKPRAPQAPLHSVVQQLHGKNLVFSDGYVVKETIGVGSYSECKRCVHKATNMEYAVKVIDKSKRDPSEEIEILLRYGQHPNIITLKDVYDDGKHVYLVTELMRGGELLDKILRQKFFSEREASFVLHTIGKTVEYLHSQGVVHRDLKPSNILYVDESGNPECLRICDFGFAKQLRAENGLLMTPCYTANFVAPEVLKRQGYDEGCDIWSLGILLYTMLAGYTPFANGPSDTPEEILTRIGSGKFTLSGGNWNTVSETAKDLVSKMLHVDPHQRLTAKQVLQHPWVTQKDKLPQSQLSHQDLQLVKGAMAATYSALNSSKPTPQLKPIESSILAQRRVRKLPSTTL
T6 sequence (Q13557 whole entry): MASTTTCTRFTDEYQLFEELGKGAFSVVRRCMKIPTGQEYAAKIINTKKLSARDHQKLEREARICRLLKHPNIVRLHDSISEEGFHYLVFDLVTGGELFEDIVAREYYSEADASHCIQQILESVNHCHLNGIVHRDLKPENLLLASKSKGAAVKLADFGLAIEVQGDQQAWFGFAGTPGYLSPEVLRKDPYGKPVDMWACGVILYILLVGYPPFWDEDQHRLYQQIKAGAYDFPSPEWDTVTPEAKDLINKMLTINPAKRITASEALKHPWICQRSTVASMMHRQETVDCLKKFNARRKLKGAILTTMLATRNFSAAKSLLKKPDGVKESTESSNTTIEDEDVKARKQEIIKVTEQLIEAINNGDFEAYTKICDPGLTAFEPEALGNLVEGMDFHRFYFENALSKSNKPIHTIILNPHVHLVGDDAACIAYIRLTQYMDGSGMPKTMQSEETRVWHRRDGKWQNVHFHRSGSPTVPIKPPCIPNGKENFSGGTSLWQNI

`Cn1ncc(Cl)c1-c1cc(C(=O)N[C@H](CN)Cc2cccc(F)c2)sc1Cl` [GSK2110183] was tested, and the inhibition at 0.5 µM (VRK2(h)) was -8%, the inhibition at 10 µM (VRK2(h)) was -5% and the inhibition at 0.5 µM (LKB1(h)) was -2%. The inhibition at 10 µM (LKB1(h)) was 40%, the inhibition at 0.5 µM (IKKα(h)) was 9% and the inhibition at 10 µM (IKKα(h)) was 8%. The inhibition at 0.5 µM (DYRK2(h)) was 2%, the inhibition at 10 µM (DYRK2(h)) was 24% and the inhibition at 0.5 µM (Rsk1(h)) was 49%. It also gave an inhibition at 10 µM (Rsk1(h)) of 89%, an inhibition at 0.5 µM (CaMKIIδ(h)) of -20% and an inhibition at 10 µM (CaMKIIδ(h)) of 12%. The “% Inhibition” value (MLCK(h); 0.5 µM) was 4% and the “% Inhibition” value (MLCK(h); 10 µM) was 60%.

`Cn1ncc(Cl)c1-c1cc(C(=O)N[C@H](CN)Cc2ccc(F)c(F)c2)oc1Cl` [GSK2141795] showed an inhibition at 0.5 µM (VRK2(h); 0.5 µM, read-out: % Inhibition) of -15%, an inhibition at 10 µM (VRK2(h); 10 µM, read-out: % Inhibition) of -5% and an inhibition at 0.5 µM (LKB1(h); 0.5 µM, read-out: % Inhibition) of -18%. For the same compound, the inhibition at 10 µM (LKB1(h); 10 µM, read-out: % Inhibition) was 18%, the inhibition at 0.5 µM (IKKα(h); 0.5 µM, read-out: % Inhibition) was -12% and the inhibition at 10 µM (IKKα(h); 10 µM, read-out: % Inhibition) was 6%. For the same compound, the inhibition at 0.5 µM (DYRK2(h); 0.5 µM, read-out: % Inhibition) was 16%, the inhibition at 10 µM (DYRK2(h); 10 µM, read-out: % Inhibition) was 64% and the inhibition at 0.5 µM (Rsk1(h); 0.5 µM, read-out: % Inhibition) was 44%. The inhibition at 10 µM (Rsk1(h); 10 µM, read-out: % Inhibition) was 91%, the inhibition at 0.5 µM (CaMKIIδ(h); 0.5 µM, read-out: % Inhibition) was 53% and the inhibition at 10 µM (CaMKIIδ(h); 10 µM, read-out: % Inhibition) was 94%. The “% Inhibition” value (MLCK(h); 0.5 µM) was 5% and the “% Inhibition” value (MLCK(h); 10 µM) was 58%.
